Laboratory results reported in patent US7074334B2, “Method for determining the binding behavior of ligands which specifically bind to target molecules” (priority 2001, dated 2006).
Where “and” joins values, the source holds several entries; their conditions need not be identical. Equal values may be shown once.

Key:
D1-type receptors = D1-type receptors (Sus scrofa, UniProt P50130); conditions: test substance 1 μmol/L
D2-type receptors = target: T1, D2-type receptors (Sus scrofa, UniProt F1SM69); experiment: MS binding assay with marker spiroperidol in striatal membrane fraction, unbound marker quantified; parameters: species or system porcine
T1 construct: As native material which contains both D1 and D2 receptors in sufficient amount; from tissue; host or cells: porcine brain striatum, membrane fraction
T1 sequence (F1SM69 1-443): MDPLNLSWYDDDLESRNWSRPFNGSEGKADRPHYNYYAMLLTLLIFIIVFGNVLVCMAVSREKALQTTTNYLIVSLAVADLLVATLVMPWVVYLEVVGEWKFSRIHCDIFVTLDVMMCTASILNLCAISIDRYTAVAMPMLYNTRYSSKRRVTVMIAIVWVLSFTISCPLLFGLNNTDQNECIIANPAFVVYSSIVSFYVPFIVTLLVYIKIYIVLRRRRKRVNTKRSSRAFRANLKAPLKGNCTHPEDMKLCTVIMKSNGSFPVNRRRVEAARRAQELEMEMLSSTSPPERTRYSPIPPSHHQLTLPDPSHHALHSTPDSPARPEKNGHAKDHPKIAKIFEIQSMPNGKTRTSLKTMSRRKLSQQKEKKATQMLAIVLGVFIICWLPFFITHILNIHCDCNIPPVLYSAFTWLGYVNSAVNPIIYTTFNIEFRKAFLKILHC

Chain of D1-type receptors (P50130 whole entry): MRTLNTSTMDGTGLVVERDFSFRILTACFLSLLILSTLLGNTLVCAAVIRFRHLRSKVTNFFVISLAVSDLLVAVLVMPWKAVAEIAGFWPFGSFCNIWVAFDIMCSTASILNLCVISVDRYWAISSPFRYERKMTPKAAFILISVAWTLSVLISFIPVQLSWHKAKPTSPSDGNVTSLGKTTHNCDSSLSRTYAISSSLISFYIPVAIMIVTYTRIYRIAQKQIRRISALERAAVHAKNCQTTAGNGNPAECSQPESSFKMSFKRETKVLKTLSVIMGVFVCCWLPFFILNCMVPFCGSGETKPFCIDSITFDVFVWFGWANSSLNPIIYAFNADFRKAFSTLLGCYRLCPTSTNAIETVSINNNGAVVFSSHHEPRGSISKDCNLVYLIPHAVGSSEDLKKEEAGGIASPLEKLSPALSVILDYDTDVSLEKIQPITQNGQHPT

SMILES	inhibition of the specific binding of the marker SCH23390 to D1-type receptors (D1-type receptors)	inhibition of the specific binding of the marker spiroperidol to D2-type receptors (D2-type receptors; test substance 1 μmol/L)	concentration of unbound marker spiroperidol (D2-type receptors)
COC(=O)c1ccccc1 [methyl benzoate]	none is capable	not capable of inhibiting	
O=C(CCCN1CCC2(CC1)C(=O)NCN2c1ccccc1)c1ccc(F)cc1 [spiroperidol]			1.93 nmol/L and 2.75 nmol/L and 2.78 nmol/L and 2.29 nmol/L and 1.89 nmol/L
